Measurements as given in ChEMBL document CHEMBL5244260, “Aldose reductase and protein tyrosine phosphatase 1B inhibitors as a promising therapeutic approach for diabetes mellitus” (Eur J Med Chem, 2020).
pIC50, pKi: −log10 of the molar value. Blank lines part the entries; values can stand above or below the compound they belong to.

Legend:
Homo sapiens [1] = species on record: Homo sapiens; assay: Selectivity ratio of IC50 for PTP1B (unknown origin) to IC50 for TCPTP (unknown origin)
Homo sapiens [2] = species on record: Homo sapiens; assay: Selectivity ratio of IC50 for PTP1B (unknown origin) to IC50 for YOP (unknown origin)
Homo sapiens [3] = species on record: Homo sapiens; assay: Selectivity ratio of IC50 for PTP1B (unknown origin) to IC50 for PP1 (unknown origin)
[4] = target: T1, Tyrosine-protein phosphatase non-receptor type 1 (Homo sapiens, UniProt P18031); assay: Inhibition of PTP1B (unknown origin) using flurogenic substrate by fluorescence plate reader assay
T1 sequence (P18031 whole entry): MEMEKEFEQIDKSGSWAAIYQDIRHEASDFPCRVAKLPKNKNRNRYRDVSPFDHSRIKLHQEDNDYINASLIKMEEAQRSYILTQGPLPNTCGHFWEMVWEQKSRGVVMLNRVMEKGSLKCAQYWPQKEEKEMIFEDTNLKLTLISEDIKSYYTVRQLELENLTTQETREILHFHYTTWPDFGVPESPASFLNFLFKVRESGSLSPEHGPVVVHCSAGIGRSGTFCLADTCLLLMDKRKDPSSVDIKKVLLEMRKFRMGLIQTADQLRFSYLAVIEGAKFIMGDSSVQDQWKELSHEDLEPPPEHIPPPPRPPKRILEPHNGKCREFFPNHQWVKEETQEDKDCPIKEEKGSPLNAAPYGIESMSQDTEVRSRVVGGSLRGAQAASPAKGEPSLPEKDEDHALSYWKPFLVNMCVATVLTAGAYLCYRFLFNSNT

Homo sapiens [5] = species on record: Homo sapiens; assay: Selectivity ratio of IC50 for PTP1B (unknown origin) to IC50 for LAR (unknown origin)
Homo sapiens [6] = species on record: Homo sapiens; assay: Selectivity ratio of IC50 for PTP1B (unknown origin) to IC50 for Protein phosphatase-lambda (unknown origin)
[7] = target: T1, Tyrosine-protein phosphatase non-receptor type 1; assay: Inhibition of human recombinant PTP1B expressed in Escherichia coli using pNPP as substrate by microplate reader assay
[8] = target: T2, Tyrosine-protein phosphatase non-receptor type 7 (Homo sapiens, UniProt P35236); assay: Inhibition of HEPTP (unknown origin)
T2 sequence (P35236 whole entry): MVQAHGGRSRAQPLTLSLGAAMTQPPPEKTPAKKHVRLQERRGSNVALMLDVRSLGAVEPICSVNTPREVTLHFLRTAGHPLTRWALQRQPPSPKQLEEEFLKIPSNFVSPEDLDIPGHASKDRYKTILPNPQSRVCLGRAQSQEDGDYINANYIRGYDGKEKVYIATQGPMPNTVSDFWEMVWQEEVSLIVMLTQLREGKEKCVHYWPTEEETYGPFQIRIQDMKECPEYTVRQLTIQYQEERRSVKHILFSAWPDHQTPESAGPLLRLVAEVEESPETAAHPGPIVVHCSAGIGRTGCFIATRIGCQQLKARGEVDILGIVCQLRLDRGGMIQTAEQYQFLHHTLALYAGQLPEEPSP

Mus musculus [9] = assay: Anti-diabetic activity in ob/ob diabetic C57BL/6J mouse assessed as decrease in glucose level at 25 mg/kg,po dosed for 4 days; format: functional; parameters: scale not given: the % may be the effect or the level left; details: time 4 day
[10] = target: T3, Receptor-type tyrosine-protein phosphatase alpha (Homo sapiens, UniProt P18433); assay: Inhibition of PTPalpha (unknown origin)
[11] = target: T1, Tyrosine-protein phosphatase non-receptor type 1; assay: Inhibition of PTP1B (unknown origin) using pNPP as substrate
[12] = target: T1, Tyrosine-protein phosphatase non-receptor type 1; assay: Inhibition of PTP1B (unknown origin) assessed as inhibition constant using pNPP as substrate
[13] = target: T1, Tyrosine-protein phosphatase non-receptor type 1; assay: Inhibition of human recombinant PTP1B (1 to 321 residues) expressed in Escherichia coli BL21 assessed as inhibition constant using pNPP as substrate
[14] = target: T1, Tyrosine-protein phosphatase non-receptor type 1; assay: Inhibition of PTP1B (unknown origin) using DiFMUP as substrate incubated for 30 min by fluorescence based microplate reader assay
[15] = Inhibition of ALR2 in rabbit lens using D,L-glyceraldehyde as substrate preincubated for 1 min in presence of NADPH followed by substrate addition and measured after 4 mins by spectrophotometric assay; format: tissue-based, Oryctolagus cuniculus
[16] = Inhibition of ALR2 in rat lens using D,L-glyceraldehyde as substrate preincubated for 10 mins in presence of NADPH followed by substrate addition and measured after 20 mins by spectrophotometric assay; format: tissue-based
[17] = target: T1, Tyrosine-protein phosphatase non-receptor type 1; assay: Inhibition of human recombinant PTP1B (1 to 321 residues) expressed in Escherichia coli BL21 (DE3) assessed as inhibition constant using pNPP as substrate by Michaelis-Menten analysis
[18] = target: Dual specificity protein phosphatase 3 (Homo sapiens, UniProt P51452); assay: Inhibition of human recombinant VHR expressed in Escherichia coli BL21 (DE3) assessed as inhibition constant using pNPP as substrate by stopped-flow spectrophotometer
[19] = target: T3, Receptor-type tyrosine-protein phosphatase alpha; assay: Inhibition of human PTPalpha assessed as inhibition constant
[20] = target: Receptor-type tyrosine-protein phosphatase F (Rattus norvegicus, UniProt Q64604); assay: Inhibition of rat recombinant LAR expressed in Escherichia coli assessed as inhibition constant using pNPP as substrate incubated for 5 mins by […]
Mus musculus [21] = assay: Hypoglycemic activity in alloxan monohydrate induced diabetic model of BALB/c mouse assessed as decrease in glucose level at 10 mg/kg,po measured upto 8 hrs by glucometer; format: functional; parameters: scale not given: the % may be the effect or the level left
[22] = target: T4, Aldo-keto reductase family 1 member B1 (Homo sapiens, UniProt P15121); assay: Inhibition of ALR2 (unknown origin) using D,L-glyceraldehyde as substrate incubated for 10 mins in presence of NADPH by UV-spectrophotometric assay
[23] = target: T1, Tyrosine-protein phosphatase non-receptor type 1; assay: Inhibition of PTP1B (1 to 321 residues) (unknown origin) expressed in Escherichia coli BL21 assessed as inhibition constant using pNPP as substrate incubated for 60 min by Michaelis-Menten analysis
[24] = target: T4, Aldo-keto reductase family 1 member B1; assay: Inhibition of human ALR2 assessed as inhibition constant

T3 sequence (P18433 whole entry): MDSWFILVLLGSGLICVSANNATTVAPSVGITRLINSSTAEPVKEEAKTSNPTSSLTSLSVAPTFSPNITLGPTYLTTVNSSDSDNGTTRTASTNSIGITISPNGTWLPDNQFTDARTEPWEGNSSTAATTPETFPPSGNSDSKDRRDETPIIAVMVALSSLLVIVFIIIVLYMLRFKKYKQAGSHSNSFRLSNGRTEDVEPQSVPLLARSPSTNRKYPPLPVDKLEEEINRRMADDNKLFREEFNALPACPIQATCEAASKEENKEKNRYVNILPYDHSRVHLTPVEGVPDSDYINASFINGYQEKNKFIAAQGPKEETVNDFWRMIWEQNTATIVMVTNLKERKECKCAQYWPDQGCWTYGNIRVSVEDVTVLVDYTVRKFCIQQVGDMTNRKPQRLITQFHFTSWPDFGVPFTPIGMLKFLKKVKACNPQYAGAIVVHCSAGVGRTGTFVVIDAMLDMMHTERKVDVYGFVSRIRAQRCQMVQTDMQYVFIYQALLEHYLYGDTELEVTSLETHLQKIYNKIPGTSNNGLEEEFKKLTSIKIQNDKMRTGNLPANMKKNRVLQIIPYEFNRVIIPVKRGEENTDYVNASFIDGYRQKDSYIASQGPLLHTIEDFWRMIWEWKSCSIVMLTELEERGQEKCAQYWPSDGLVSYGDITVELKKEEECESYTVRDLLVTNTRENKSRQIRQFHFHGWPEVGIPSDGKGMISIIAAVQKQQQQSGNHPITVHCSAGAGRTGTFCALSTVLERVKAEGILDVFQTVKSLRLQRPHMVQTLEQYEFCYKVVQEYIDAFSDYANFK
Receptor-type tyrosine-protein phosphatase F, sequence (Q64604 whole entry): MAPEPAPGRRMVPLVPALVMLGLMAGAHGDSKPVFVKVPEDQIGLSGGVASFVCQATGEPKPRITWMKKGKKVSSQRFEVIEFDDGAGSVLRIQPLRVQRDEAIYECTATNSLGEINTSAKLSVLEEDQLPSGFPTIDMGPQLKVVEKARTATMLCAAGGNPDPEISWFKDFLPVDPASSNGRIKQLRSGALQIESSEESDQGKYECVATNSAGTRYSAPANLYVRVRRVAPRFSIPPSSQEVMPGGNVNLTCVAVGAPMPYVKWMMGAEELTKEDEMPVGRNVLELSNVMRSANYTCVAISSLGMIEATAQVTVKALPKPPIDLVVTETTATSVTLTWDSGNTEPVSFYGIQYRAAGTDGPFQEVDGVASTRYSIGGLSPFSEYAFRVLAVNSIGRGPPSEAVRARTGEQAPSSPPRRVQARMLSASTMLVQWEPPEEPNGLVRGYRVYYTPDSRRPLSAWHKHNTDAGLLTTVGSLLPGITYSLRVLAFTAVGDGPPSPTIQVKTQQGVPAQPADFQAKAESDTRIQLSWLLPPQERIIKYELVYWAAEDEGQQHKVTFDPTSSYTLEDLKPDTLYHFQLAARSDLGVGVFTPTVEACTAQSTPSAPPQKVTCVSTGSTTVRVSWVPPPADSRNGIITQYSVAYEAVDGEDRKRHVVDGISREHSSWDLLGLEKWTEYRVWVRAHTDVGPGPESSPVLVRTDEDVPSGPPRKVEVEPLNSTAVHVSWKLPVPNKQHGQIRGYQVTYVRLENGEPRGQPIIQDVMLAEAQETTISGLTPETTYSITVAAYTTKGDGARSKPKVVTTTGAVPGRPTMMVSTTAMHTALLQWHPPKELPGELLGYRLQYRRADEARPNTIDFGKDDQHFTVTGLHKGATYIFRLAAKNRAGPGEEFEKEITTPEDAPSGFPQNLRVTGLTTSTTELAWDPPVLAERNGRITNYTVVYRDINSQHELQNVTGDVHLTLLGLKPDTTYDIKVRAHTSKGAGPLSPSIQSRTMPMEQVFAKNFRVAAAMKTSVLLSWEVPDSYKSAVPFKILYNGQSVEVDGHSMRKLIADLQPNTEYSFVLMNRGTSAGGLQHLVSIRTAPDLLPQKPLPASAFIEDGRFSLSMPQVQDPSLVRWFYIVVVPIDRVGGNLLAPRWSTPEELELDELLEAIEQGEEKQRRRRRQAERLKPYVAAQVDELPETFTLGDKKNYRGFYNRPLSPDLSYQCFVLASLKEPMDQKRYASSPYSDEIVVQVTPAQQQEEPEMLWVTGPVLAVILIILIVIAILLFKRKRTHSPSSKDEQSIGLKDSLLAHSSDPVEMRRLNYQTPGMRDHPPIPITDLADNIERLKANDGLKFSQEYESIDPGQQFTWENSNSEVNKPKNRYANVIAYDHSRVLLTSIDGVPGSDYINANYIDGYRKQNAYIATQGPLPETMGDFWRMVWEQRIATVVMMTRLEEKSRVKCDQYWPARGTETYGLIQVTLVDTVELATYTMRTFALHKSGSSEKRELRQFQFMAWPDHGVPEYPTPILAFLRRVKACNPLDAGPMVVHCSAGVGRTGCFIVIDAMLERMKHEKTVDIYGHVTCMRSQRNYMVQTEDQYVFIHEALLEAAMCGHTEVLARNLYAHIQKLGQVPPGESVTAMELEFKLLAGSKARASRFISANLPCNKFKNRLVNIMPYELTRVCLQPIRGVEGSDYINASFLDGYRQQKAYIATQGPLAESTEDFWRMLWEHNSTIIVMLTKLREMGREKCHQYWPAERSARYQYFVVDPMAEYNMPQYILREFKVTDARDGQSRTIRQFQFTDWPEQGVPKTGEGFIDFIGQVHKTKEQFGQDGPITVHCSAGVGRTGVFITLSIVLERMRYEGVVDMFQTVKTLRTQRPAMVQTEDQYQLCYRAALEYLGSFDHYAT
Dual specificity protein phosphatase 3, sequence (P51452 whole entry): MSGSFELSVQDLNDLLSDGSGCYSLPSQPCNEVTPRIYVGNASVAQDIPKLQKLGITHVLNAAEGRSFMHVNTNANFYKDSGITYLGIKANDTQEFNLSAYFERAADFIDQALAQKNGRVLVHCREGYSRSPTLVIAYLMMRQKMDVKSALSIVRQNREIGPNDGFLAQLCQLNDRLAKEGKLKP

Compound: O=C(O)[C@H](Cc1ccccc1)Oc1ccc(-c2ccc(-c3c(Cc4ccccc4)oc4ccccc34)cc2)cc1
pIC50 [8]: 5.15
Activity (Mus musculus [9]): 27%
pIC50 [10]: 4.47

Compound: CCCCCNC(=O)[C@H](Cc1ccc(OCC(=O)O)c(C(=O)O)c1)NC(=O)[C@H](Cc1ccccc1)NC(=O)CCC(=O)O
pKi [13]: 6.60

Compound: O=C(O)Cn1ccc2ccccc21
pIC50 [15]: 5.15

Compound: Cc1ccc(C(=O)/C(=C/c2ccc(O)c(O)c2)C(=O)O)cc1
pIC50 [16]: 6.31

Compound: O=C1NC(=O)C2(CCCCC2)N1S(=O)(=O)c1ccc(Cl)s1
Activity (Mus musculus [21]): 79%
pIC50 [22]: 6.33

Compound: O=C(O)C(=O)Nc1sc2c(c1C(=O)O)COC(COC1=NS(=O)(=O)c3ccccc31)C2 (stereo not given)
pKi [23]: 6.22

Compound: N#Cc1ccc(CNC(=O)c2ccc(Cl)cc2OCC(=O)O)cc1
pKi [24]: 5.70

Continued, values first:

Ratio IC50 (Homo sapiens [1]): 10
Ratio IC50 (Homo sapiens [2]): 10
Ratio IC50 (Homo sapiens [3]): 10
pIC50 [4]: 5.33
Ratio IC50 (Homo sapiens [5]): 10
Ratio IC50 (Homo sapiens [6]): 10
Compound: COC(=O)C(O)c1ccc(NC(=O)CCCCn2cc(COc3ccc(-c4cc(C(=O)O)no4)cc3)nn2)cc1 (stereo not given)

pIC50 [7]: 5.61
Compound: CC(=C\c1csc([C@@H](Cc2ccc(OCc3ccccc3)cc2)NC(=O)CC2CCCCC2)n1)/C=C(\C)C(=O)O

Ratio IC50 (Homo sapiens [1]): 116
pIC50 [11]: 8.30
Compound: O=C(c1ccccc1)C(Cc1ccc2cc(Br)c(C(F)(F)P(=O)(O)O)cc2c1)(c1ccc2cc(C(F)(F)P(=O)(O)O)c(Br)cc2c1)n1nnc2ccccc21 (stereo not given)

pKi [12]: 5.92
Compound: CCCCCNC(=O)[C@H](Cc1ccc(OC(C(=O)O)C(=O)O)cc1)NC(=O)[C@H](Cc1ccccc1)NC(=O)CCC(=O)O

pIC50 [14]: 6.22
Compound: O=c1c2cc(O)c(O)cc2oc2cc(OCc3cccc(Cl)c3F)cc(O)c12

pKi [17]: 6.03
pKi [18]: 2.44
pKi [19]: 3.92
pKi [20]: 4.00
Compound: O=C(CCc1ccc(C(F)(F)P(=O)(O)O)cc1)Nc1cc(NC(=O)CCc2ccc(C(F)(F)P(=O)(O)O)cc2)cc(C(=O)NCCc2ccc(C(=O)O)cc2)c1
